Assay results taken from the supplement of paper PMC11061612.

How the values were obtained:
Test in all cases: combination Emax (second highest fraction inhibited in the dose matrix, 72 h); higher = more inhibition; extreme values may be limits of the assay
[1] = system: J82 (Bladder Carcinoma)
Summary of the method: (§1)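 Bliss excess equals the observed combination effect minus the expected value EA + EB − EA·EB, where EA and EB are the effects of each agent alone. Combination Emax is the second-highest inhibition within the matrix. Inhibition was scaled from CellTiter-Glo 2.0 luminescence, with 0 set by vehicle wells and 1 by blank wells, after 72 hours of two-drug dosing of cells plated in 1536-well plates.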

[2] = system: IGR-1 (Melanoma)
Summary of the method: as §1

[3] = system: SN12C (Kidney Carcinoma)
Summary of the method: as §1

[4] = system: IHH-4 (Thyroid Gland Carcinoma)
Summary of the method: as §1

[5] = system: RH-1 (Ewing's Sarcoma)
Summary of the method: as §1

[6] = system: KATOIII (Gastric Carcinoma)
Summary of the method: as §1

[7] = system: SW756 (Cervical Carcinoma)
Summary of the method: as §1

[8] = system: CAL-78 (Chondrosarcoma)
Summary of the method: as §1

[9] = system: 697 (B-Lymphoblastic Leukemia)
Summary of the method: as §1

[10] = system: TGBC24TKB (Biliary Tract Carcinoma)
Summary of the method: as §1

[11] = system: JiyoyeP-2003 (Burkitt's Lymphoma)
Summary of the method: as §1

[12] = system: U-266 (Plasma Cell Myeloma)
Summary of the method: as §1

[13] = system: SNU-C5 (Colorectal Carcinoma)
Summary of the method: as §1

[14] = system: C3A (Hepatocellular Carcinoma)
Summary of the method: as §1

[15] = system: NCI-H1694 (Small Cell Lung Carcinoma)
Summary of the method: as §1

[16] = system: SK-N-FI (Neuroblastoma)
Summary of the method: as §1

[17] = system: EM-2 (Chronic Myelogenous Leukemia)
Summary of the method: as §1

[18] = system: KARPAS-620 (Plasma Cell Myeloma)
Summary of the method: as §1

[19] = system: HCC2157 (Breast Carcinoma)
Summary of the method: as §1

[20] = system: CFPAC-1 (Pancreatic Carcinoma)
Summary of the method: as §1

| Compound | combination Emax [1] | combination Emax [2] | combination Emax [3] | combination Emax [4] | combination Emax [5] | combination Emax [6] | combination Emax [7] | combination Emax [8] | combination Emax [9] | combination Emax [10] | combination Emax [11] | combination Emax [12] | combination Emax [13] | combination Emax [14] | combination Emax [15] | combination Emax [16] | combination Emax [17] | combination Emax [18] | combination Emax [19] | combination Emax [20] |
| --- | --- | --- | --- | --- | --- | --- | --- | --- | --- | --- | --- | --- | --- | --- | --- | --- | --- | --- | --- | --- |
| CCN(CCO)CCCOc1ccc2c(Nc3cc(CC(=O)Nc4cccc(F)c4)[nH]n3)ncnc2c1 [AZD2811] + C[C@@H]1COCCN1C2=NC(=NC(=C2)C3(CC3)[S@](=N)(=O)C)C4=C5C=CNC5=NC=C4 [AZD6738] (first compound max 1 µM, 7x7, partner max 10 µM) | 0.184 | 0.374 | 0.212 | 0.763 | 1 | 0.424 | 0.171 | 0.534 | 1 | 0.746 | 0.93 | 0.426 | 0.755 | 0.464 | 0.73 | 0.687 | 0.968 | 0.59 | 0.918 | 0.399 |
| CC1(C)CCC(CN2CCN(c3ccc(C(=O)NS(=O)(=O)c4ccc(NCC5CCOCC5)c([N+](=O)[O-])c4)c(Oc4cnc5[nH]ccc5c4)c3)CC2)=C(c2ccc(Cl)cc2)C1 [Venetoclax] + C=CCn1c(=O)c2cnc(Nc3ccc(N4CCN(C)CC4)cc3)nc2n1-c1cccc(C(C)(C)O)n1 [AZD1775] (first compound max 1 µM, partner max 1 µM) | 0.177 | 0.396 | 0.381 | 0.711 | 1 | 0.382 | 0.436 | 0.51 | 1 | 0.52 | 0.954 | 0.85 | 0.57 | 0.572 | 0.516 | 0.713 | 0.949 | 0.976 | 0.782 | 0.495 |
| CN(C)CCCOc1ccc(-c2ccc3ncc4c(c3c2)n(C2CCOCC2)c(=O)n4C)cn1 [AZD0156] + C=CCn1c(=O)c2cnc(Nc3ccc(N4CCN(C)CC4)cc3)nc2n1-c1cccc(C(C)(C)O)n1 [AZD1775] (first compound max 1 µM, partner max 1 µM) | 0.333 | 0.223 | 0.242 | 0.821 | 1 | 0.213 | 0.379 | 0.428 | 1 | 0.677 | 0.937 | 0.737 | 0.583 | 0.524 | 0.367 | 0.722 | 0.902 | 0.511 | 0.832 | 0.473 |
| COc1cc2c(cc1OCCCCCOc1cc3c(cc1OC)C(=O)N1C=C(C)C[C@H]1C=N3)N=C[C@@H]1CC(C)=CN1C2=O [SG3199] + O=C(c1cc(Cc2n[nH]c(=O)c3ccccc23)ccc1F)N1CCN(C(=O)C2CC2)CC1 [Olaparib] (first compound max 0.001 µM, 7x7, partner max 10 µM) | 0.187 | 0.187 | 0.172 | 0.193 | 0.189 | 0.0764 | 0.149 | 0.268 | 0.984 | 0.126 | 0.124 | 0.179 | 0.147 | 0.215 | 0.112 | 0.0819 | 0.292 | 0.139 | 0.264 | 0.175 |
| Cc1c2c(nn1C)CSCc1cc(n(C)n1)CSc1cc(c3ccccc3c1)OCCCc1c(C(=O)O)n(C)c3c-2c(Cl)ccc13 [AZD5991] + C[C@@H]1COCCN1C2=NC(=NC(=C2)C3(CC3)[S@](=N)(=O)C)C4=C5C=CNC5=NC=C4 [AZD6738] (first compound max 1 µM, 7x7, partner max 10 µM) | 0.389 | 0.852 | 0.228 | 0.709 | 0.956 | 0.373 | 0.283 | 0.796 | 1 | 0.672 | 0.965 | 0.95 | 0.795 | 0.437 | 1 | 0.815 | 0.98 | 1 | 0.998 | 0.555 |
| CC1(C)CCC(CN2CCN(c3ccc(C(=O)NS(=O)(=O)c4ccc(NCC5CCOCC5)c([N+](=O)[O-])c4)c(Oc4cnc5[nH]ccc5c4)c3)CC2)=C(c2ccc(Cl)cc2)C1 [Venetoclax] + CN(C)CCCOc1ccc(-c2ccc3ncc4c(c3c2)n(C2CCOCC2)c(=O)n4C)cn1 [AZD0156] (first compound max 1 µM, 7x7, partner max 1 µM) | 0.186 | 0.211 | 0.249 | 0.129 | 0.221 | 0.154 | 0.158 | 0.248 | 0.988 | 0.268 | 0.189 | 0.56 | 0.185 | 0.17 | 0.14 | 0.217 | 0.174 | 0.989 | 0.377 | 0.342 |
| C[C@@H](c1ccc2nccn2c1)n1nnc2ncc(-c3cnn(C)c3)nc21 [Savolitinib] + Cc1c2c(nn1C)CSCc1cc(n(C)n1)CSc1cc(c3ccccc3c1)OCCCc1c(C(=O)O)n(C)c3c-2c(Cl)ccc13 [AZD5991] (first compound max 1 µM, 7x7, partner max 1 µM) | 0.205 | 0.223 | 0.197 | 0.0909 | 0.518 | 0.211 | 0.128 | 0.697 | 1 | 0.182 | 0.166 | 0.859 | 0.177 | 0.195 | 0.371 | 0.24 | 0.364 | 0.997 | 0.978 | 0.115 |
| Cc1cc2ncnn2cc1Nc1ncc2c(n1)n(C1CCOCC1)c(=O)n2C [AZD7648] + C=CCn1c(=O)c2cnc(Nc3ccc(N4CCN(C)CC4)cc3)nc2n1-c1cccc(C(C)(C)O)n1 [AZD1775] (first compound max 10 µM, partner max 1 µM) | 0.244 | 0.25 | 0.313 | 0.802 | 1 | 0.391 | 0.442 | 0.458 | 1 | 0.786 | 0.929 | 0.697 | 0.609 | 0.521 | 0.383 | 0.591 | 0.964 | 0.597 | 0.899 | 0.444 |
| CC1(C)CCC(CN2CCN(c3ccc(C(=O)NS(=O)(=O)c4ccc(NCC5CCOCC5)c([N+](=O)[O-])c4)c(Oc4cnc5[nH]ccc5c4)c3)CC2)=C(c2ccc(Cl)cc2)C1 [Venetoclax] + C1CN(CCC1(C(=O)N[C@@H](CCO)C2=CC=C(C=C2)Cl)N)C3=NC=NC4=C3C=CN4 [Capivasertib] (first compound max 1 µM, 7x7, partner max 3 µM) | 0.259 | 0.193 | 0.206 | 0.248 | 0.213 | 0.254 | 0.195 | 0.263 | 0.988 | 0.253 | 0.591 | 0.555 | 0.318 | 0.17 | 0.179 | 0.302 | 0.338 | 1 | 0.903 | 0.305 |
| NC1(C(=O)N[C@@H](CCO)c2ccc(Cl)cc2)CCN(c2ncnc3[nH]ccc23)CC1 [Capivasertib] + C[C@@H]1COCCN1C2=NC(=NC(=C2)C3(CC3)[S@](=N)(=O)C)C4=C5C=CNC5=NC=C4 [AZD6738] (first compound max 10 µM, 7x7, partner max 10 µM) | 0.65 | 0.713 | 0.261 | 0.859 | 0.97 | 0.438 | 0.428 | 0.663 | 1 | 0.711 | 0.93 | 0.365 | 0.811 | 0.551 | 0.682 | 0.705 | 0.973 | 0.757 | 1 | 0.567 |
| NC1(C(=O)N[C@@H](CCO)c2ccc(Cl)cc2)CCN(c2ncnc3[nH]ccc23)CC1 [Capivasertib] + Cn1cnc2c(F)c(Nc3ccc(Br)cc3Cl)c(C(=O)NOCCO)cc21 [Selumetinib] (first compound max 10 µM, 7x7, partner max 10 µM) | 0.413 | 0.915 | 0.352 | 0.607 | 0.317 | 0.431 | 0.448 | 0.452 | 0.617 | 0.556 | 0.775 | 0.694 | 0.656 | 0.603 | 0.204 | 0.614 | 0.771 | 0.96 | 1 | 0.491 |
| NC1(C(=O)N[C@@H](CCO)c2ccc(Cl)cc2)CCN(c2ncnc3[nH]ccc23)CC1 [Capivasertib] + CCN(CCO)CCCOc1ccc2c(Nc3cc(CC(=O)Nc4cccc(F)c4)[nH]n3)ncnc2c1 [AZD2811] (first compound max 10 µM, 7x7, partner max 1 µM) | 0.482 | 0.465 | 0.27 | 0.618 | 0.981 | 0.295 | 0.287 | 0.512 | 1 | 0.58 | 0.777 | 0.312 | 0.501 | 0.307 | 0.508 | 0.396 | 0.877 | 0.798 | 1 | 0.319 |
